Entries after “also recorded” stand apart in the source; their conditions may differ. No end group written: not given here.
Legend:
COS7 cells = assay: COS7 cell survival following serum deprivation (Trypan blue uptake); type: cell-based; details: 5 nM peptide
Experimental: To gain insight into the binding of TUF1[43-54] peptide and p75^NTR, serum deprivation was used as a stressor to COS7 cells transfected with pCMV-SPORT6-p75 expression vector. COS7 cells were seeded at 15,000 cells/well in 12-well plates, transfected with 300 ng pCMV-eGFP (control) or 300 ng pCMV-SPORT6-p75, and incubated overnight. Cells were then incubated in serum-free medium or serum-free medium supplemented with 5 nM TUF1[43-54]. Cells were assessed for Trypan blue dye uptake at 24, 48, and 72 hours.
Immediately after removing growth medium, cells were rinsed with PBS and incubated in 100 μl 0.4% Trypan blue dye diluted in PBS. Images of cells were captured at 10× magnification using an inverted microscope equipped with a CCD camera. Trypan blue-positive cells were counted using Adobe Photoshop CS3 (Adobe Systems Inc., San Jose, Calif.). Graphs and statistics were performed using Prism Graphpad 4.0 (GraphPad Software Inc., San Diego, Calif.).

[1] = system: Cortical neurons and glia; assay: Glutamate-induced excitotoxicity in cultured cortical neurons; type: cell-based, mice; details: 500 μM glutamate, then 0.2-1.8 μM peptide for 24 hours
Experimental: To assess the trophic effect of TUF1 peptide on primary culture neurons, we assayed the effect of TUF1 supplementation on glutamate-induced excitotoxicity in neuronal cultures. Cortical neurons and glia were cultured from newborn mice for seven days. Cultures were then treated with 500 μM glutamate (diluted in N2tox solution, Invitrogen Corp., Carlsbad, Calif.) and incubated at 37° C. for ten minutes. Glutamate was removed from cultures by two washes with EBSS media (Invitrogen Corp., Carlsbad, Calif.). Cultures were then incubated in EBSS media supplemented with 0.0 μM, 0.2 μM, 0.4 μM, 0.9 μM, or 1.8 μM TUF1 peptide for 24 hours. Surviving neurons from cultures were manually counted by Trypan Blue exclusion using an inverted microscope. Values are means±SD, n=6-8/group.

## AYKSYVRALPLL [TUF1[43-54]]
COS7 cells; COS7 cells transfected with pCMV-SPORT6-p75, serum deprivation
  survival benefit of peptide in presence of p75^NTR: removed the survival benefit
COS7 cells; Trypan blue-positive cells at 24, 48, 72 hours, control-transfected COS7 cells
  cell survival / cell death following serum deprivation: promotes cell survival; also recorded: reduces in vitro cell death following serum deprivation
[1]
  neural excitotoxicity induced by glutamate: reduces neural excitotoxicity induced by glutamate
